Results published in patent publication US8247211B2, “Glycopeptide antibiotics” (American Cyanamid Company, priority 2001, dated 2012).

Columns and labels:
Test in all cases: In vitro antibacterial evaluation: minimum inhibitory concentration (MIC), broth dilution method
Format in all cases: cell-based
Streptococcus sp. = details: 18 hours at 35° C.
Outline: (§1)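 Broth dilution per NCCLS M7-A2 in Muller-Hinton II […], inoculum 5×10^5 CFU/mL, antibiotic tested over 64-0.06 μg/mL. MIC is taken as the lowest concentration that inhibits growth. Panel includes recent clinical isolates resistant to methicillin, penicillin and/or vancomycin.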

Enterococcus sp. = details: 18 hours at 35° C.
Outline: as §1

Escherichia coli = details: 18 hours at 35° C.
Outline: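 First, organisms are seeded at 5×10^5 CFU/mL into Muller-Hinton II […]. Next, antibiotic is applied across 64-0.06 μg/mL by broth dilution (NCCLS M7-A2). Finally, the lowest inhibitory concentration is recorded as MIC.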

Staphylococcus sp. = details: for MIC Staphylococcus aureus (ATCC 29213): strain ATCC 29213; for MIC Staphylococcus aureus (GC 1131): strain GC 1131; for MIC Staphylococcus aureus (GC 3051): strain GC 3051; for MIC Staphylococcus aureus (GC 3053): strain GC 3053; for MIC Staphylococcus aureus (GC 4541): strain GC 4541; for MIC Staphylococcus aureus (GC 4542): strain GC 4542; for MIC Staphylococcus aureus-SMITH (GC 4543): strain GC 4543; for MIC Staphylococcus aureus (GC 4544): strain GC 4544; for MIC Staphylococcus aureus (GC 4545): strain GC 4545; for MIC Staphylococcus haemolyticus (GC 4546): strain GC 4546; for MIC Coagulase Negative Staphylococcus (GC 4547): strain GC 4547; for MIC Coagulase Negative Staphylococcus (GC 4548): strain GC 4548; for MIC Coagulase Negative Staphylococcus (GC 4549): strain GC 4549; for MIC Coagulase Negative Staphylococcus (GC 4551): strain GC 4551; for MIC Coagulase Negative Staphylococcus (GC 6257): strain GC 6257
Outline: as §1

[1] = Streptococcus agalactiae (GC 4564)
[2] = Streptococcus pneumoniae (ATCC 6301)
[3] = Streptococcus pneumoniae (GC 1894)
[4] = Streptococcus pneumoniae (GC 4565)
[5] = Streptococcus pyogenes (GC 4563)
[6] = broth dilution, inoculum 5×10^5 CFU/mL
[7] = Enterococcus faecalis (ATCC 29212)
[8] = Enterococcus faecalis (GC 2242)
[9] = Enterococcus faecalis (GC 2691)
[10] = Enterococcus faecalis (GC 3059)
[11] = Enterococcus faecalis (GC 4552)
[12] = Enterococcus faecalis (GC 4553)
[13] = Enterococcus faecalis (GC 4554)
[14] = Enterococcus faecalis (GC 6189)
[15] = broth dilution, 18 hours at 35° C.

CC(c1ccccc1)C1NC(=O)CNC(=O)C(CO)NC(=O)C(C(O)C2CNC(=N)N2C2OC(CO)C(O)C(O)C2O)NC(=O)C(C(O)C2CNC(=N)N2)NC(=O)C(Cc2ccc(OC3OC(CO)C(OC4OC5COC6(CCC(C(C)(C)C)CC6)OC5C(O)C4O)C(O)C3O)cc2)NC1=O (stereo not drawn) [Example 208, Cyclo[glycyl-β-methylphenylalanyl-O-[4-O-[4,6-O-(4-tert, butylcyclohexylidene)hexopyranosyl]hexopyranosyl]tyrosyl-3-(2-iminoimidazolidin-4-yl)seryl-3-(3-hexopyranosyl-2-iminoimidazolidin-4-yl)serylseryl]]
0.12 µg/mL: MIC Streptococcus agalactiae (GC 4564) (Streptococcus sp.; [1]) | MIC Streptococcus pyogenes (GC 4563) (Streptococcus sp.; [5]) | MIC Streptococcus agalactiae (GC 4564) (Streptococcus sp.; [6]) | MIC Streptococcus pyogenes (GC 4563) (Streptococcus sp.; [6])
4 µg/mL: MIC Enterococcus avium (GC 4558) (Enterococcus sp.; Enterococcus avium (GC 4558)) | MIC Enterococcus avium (GC 4558) (Enterococcus sp.; [6]) | MIC Staphylococcus aureus (ATCC 29213) (Staphylococcus sp.) | MIC Staphylococcus aureus (GC 3051) (Staphylococcus sp.) | MIC Staphylococcus aureus (GC 3053) (Staphylococcus sp.) | MIC Staphylococcus aureus (GC 4542) (Staphylococcus sp.) | MIC Staphylococcus aureus-SMITH (GC 4543) (Staphylococcus sp.) | MIC Staphylococcus aureus (GC 4545) (Staphylococcus sp.) | MIC Staphylococcus haemolyticus (GC 4546) (Staphylococcus sp.) | MIC Coagulase Negative Staphylococcus (GC 4547) (Staphylococcus sp.) | MIC Coagulase Negative Staphylococcus (GC 4548) (Staphylococcus sp.) | MIC Coagulase Negative Staphylococcus (GC 4549) (Staphylococcus sp.) | MIC Coagulase Negative Staphylococcus (GC 4551) (Staphylococcus sp.) | MIC Coagulase Negative Staphylococcus (GC 6257) (Staphylococcus sp.)
>64 µg/mL: MIC Escherichia coli (GC 4559) (Escherichia coli)
<0.06 µg/mL: MIC Streptococcus pneumoniae (ATCC 6301) (Streptococcus sp.; [2]) | MIC Streptococcus pneumoniae (GC 1894) (Streptococcus sp.; [3]) | MIC Streptococcus pneumoniae (GC 4565) (Streptococcus sp.; [4]) | MIC Streptococcus pneumoniae (ATCC 6301) (Streptococcus sp.; [6]) | MIC Streptococcus pneumoniae (GC 1894) (Streptococcus sp.; [6]) | MIC Streptococcus pneumoniae (GC 4565) (Streptococcus sp.; [6])
8 µg/mL: MIC Enterococcus faecalis (ATCC 29212) (Enterococcus sp.; [7]) | MIC Enterococcus faecalis (GC 2242) (Enterococcus sp.; [8]) | MIC Enterococcus faecalis (GC 2691) (Enterococcus sp.; [9]) | MIC Enterococcus faecalis (GC 3059) (Enterococcus sp.; [10]) | MIC Enterococcus faecalis (GC 4552) (Enterococcus sp.; [11]) | MIC Enterococcus faecalis (GC 4553) (Enterococcus sp.; [12]) | MIC Enterococcus faecalis (GC 4554) (Enterococcus sp.; [13]) | MIC Enterococcus faecalis (GC 6189) (Enterococcus sp.; [14]) | MIC Enterococcus faecium (GC 2243) (Enterococcus sp.; Enterococcus faecium (GC 2243)) | MIC Enterococcus faecium (GC 4556) (Enterococcus sp.; Enterococcus faecium (GC 4556)) | MIC Enterococcus faecium (GC 4557) (Enterococcus sp.; Enterococcus faecium (GC 4557)) | MIC Enterococcus faecalis (ATCC 29212) (Enterococcus sp.; [6]) | MIC Enterococcus faecalis (GC 2242) (Enterococcus sp.; [6]) | MIC Enterococcus faecalis (GC 2691) (Enterococcus sp.; [6]) | MIC Enterococcus faecalis (GC 3059) (Enterococcus sp.; [6]) | MIC Enterococcus faecalis (GC 4552) (Enterococcus sp.; [6]) | MIC Enterococcus faecalis (GC 4553) (Enterococcus sp.; [6]) | MIC Enterococcus faecalis (GC 4554) (Enterococcus sp.; [6]) | MIC Enterococcus faecalis (GC 6189) (Enterococcus sp.; [6]) | MIC Enterococcus faecium (GC 2243) (Enterococcus sp.; [6]) | MIC Enterococcus faecium (GC 4556) (Enterococcus sp.; [6]) | MIC Enterococcus faecium (GC 4557) (Enterococcus sp.; [6]) | MIC Escherichia coli (GC 4560) (Escherichia coli) | MIC Staphylococcus aureus (GC 1131) (Staphylococcus sp.) | MIC Staphylococcus aureus (GC 4541) (Staphylococcus sp.) | MIC Staphylococcus aureus (GC 4544) (Staphylococcus sp.)
64 µg/mL: MIC Escherichia coli (ATCC 25922) (Escherichia coli)

Cyclo[glycyl-4-chloro-β-methylphenylalanyl-O-[4-O-(4,6-O-cyclopentylidenehexopyranosyl)-hexopyranosyl]tyrosyl-3-(2-iminoimidazolidin-4-yl)seryl-3-(3-hexopyranosyl-2-iminoimidazolidin-4-yl)serylseryl] [Example 202]
4 µg/mL: MIC Enterococcus faecium (GC 4557) (Enterococcus sp.; Enterococcus faecium (GC 4557)) | MIC Enterococcus faecium (GC 4557) (Enterococcus sp.; [6]) | MIC Staphylococcus aureus-SMITH (GC 4543) (Staphylococcus sp.; [15]) | MIC Coagulase Negative Staphylococcus (GC 4549) (Staphylococcus sp.; [15]) | MIC Coagulase Negative Staphylococcus (GC 4551) (Staphylococcus sp.; [15]) | MIC Staphylococcus aureus (ATCC 29213) (Staphylococcus sp.) | MIC Staphylococcus aureus (ATCC 29213) (Staphylococcus sp.; [15]) | MIC Staphylococcus aureus (GC 1131) (Staphylococcus sp.) | MIC Staphylococcus aureus (GC 1131) (Staphylococcus sp.; [15]) | MIC Staphylococcus aureus (GC 3051) (Staphylococcus sp.) | MIC Staphylococcus aureus (GC 3051) (Staphylococcus sp.; [15]) | MIC Staphylococcus aureus (GC 4541) (Staphylococcus sp.) | MIC Staphylococcus aureus (GC 4541) (Staphylococcus sp.; [15]) | MIC Staphylococcus aureus (GC 4542) (Staphylococcus sp.) | MIC Staphylococcus aureus (GC 4542) (Staphylococcus sp.; [15]) | MIC Staphylococcus aureus-SMITH (GC 4543) (Staphylococcus sp.) | MIC Staphylococcus aureus (GC 4544) (Staphylococcus sp.) | MIC Staphylococcus aureus (GC 4544) (Staphylococcus sp.; [15]) | MIC Staphylococcus aureus (GC 4545) (Staphylococcus sp.) | MIC Staphylococcus aureus (GC 4545) (Staphylococcus sp.; [15]) | MIC Coagulase Negative Staphylococcus (GC 4549) (Staphylococcus sp.) | MIC Coagulase Negative Staphylococcus (GC 4551) (Staphylococcus sp.)
32 µg/mL: MIC Enterococcus avium (GC 4558) (Enterococcus sp.; Enterococcus avium (GC 4558)) | MIC Enterococcus faecalis (ATCC 29212) (Enterococcus sp.; [7]) | MIC Enterococcus faecalis (GC 4552) (Enterococcus sp.; [11]) | MIC Enterococcus faecalis (GC 4553) (Enterococcus sp.; [12]) | MIC Enterococcus faecalis (GC 4554) (Enterococcus sp.; [13]) | MIC Enterococcus faecium (GC 2243) (Enterococcus sp.; Enterococcus faecium (GC 2243)) | MIC Enterococcus avium (GC 4558) (Enterococcus sp.; [6]) | MIC Enterococcus faecalis (ATCC 29212) (Enterococcus sp.; [6]) | MIC Enterococcus faecalis (GC 4552) (Enterococcus sp.; [6]) | MIC Enterococcus faecalis (GC 4553) (Enterococcus sp.; [6]) | MIC Enterococcus faecalis (GC 4554) (Enterococcus sp.; [6]) | MIC Enterococcus faecium (GC 2243) (Enterococcus sp.; [6]) | MIC Escherichia coli (ATCC 25922) (Escherichia coli)
<0.5 µg/mL: MIC Streptococcus pneumoniae (ATCC 6301) (Streptococcus sp.; [2]) | MIC Streptococcus pneumoniae (GC 1894) (Streptococcus sp.; [3]) | MIC Streptococcus pneumoniae (ATCC 6301) (Streptococcus sp.; [6]) | MIC Streptococcus pneumoniae (GC 1894) (Streptococcus sp.; [6])
64 µg/mL: MIC Enterococcus faecalis (GC 3059) (Enterococcus sp.; [10]) | MIC Enterococcus faecalis (GC 3059) (Enterococcus sp.; [6])
16 µg/mL: MIC Enterococcus faecalis (GC 2242) (Enterococcus sp.; [8]) | MIC Enterococcus faecalis (GC 2691) (Enterococcus sp.; [9]) | MIC Enterococcus faecalis (GC 6189) (Enterococcus sp.; [14]) | MIC Enterococcus faecium (GC 4556) (Enterococcus sp.; Enterococcus faecium (GC 4556)) | MIC Enterococcus faecalis (GC 2242) (Enterococcus sp.; [6]) | MIC Enterococcus faecalis (GC 2691) (Enterococcus sp.; [6]) | MIC Enterococcus faecalis (GC 6189) (Enterococcus sp.; [6]) | MIC Enterococcus faecium (GC 4556) (Enterococcus sp.; [6]) | MIC Escherichia coli (GC 4559) (Escherichia coli)
8 µg/mL: MIC Streptococcus pneumoniae (GC 4565) (Streptococcus sp.; [4]) | MIC Streptococcus pneumoniae (GC 4565) (Streptococcus sp.; [6]) | MIC Staphylococcus aureus (GC 3053) (Staphylococcus sp.) | MIC Staphylococcus aureus (GC 3053) (Staphylococcus sp.; [15])
1 µg/mL: MIC Streptococcus pyogenes (GC 4563) (Streptococcus sp.; [5]) | MIC Streptococcus pyogenes (GC 4563) (Streptococcus sp.; [6])
2 µg/mL: MIC Streptococcus agalactiae (GC 4564) (Streptococcus sp.; [1]) | MIC Streptococcus agalactiae (GC 4564) (Streptococcus sp.; [6]) | MIC Escherichia coli (GC 4560) (Escherichia coli) | MIC Staphylococcus haemolyticus (GC 4546) (Staphylococcus sp.; [15]) | MIC Coagulase Negative Staphylococcus (GC 4547) (Staphylococcus sp.; [15]) | MIC Coagulase Negative Staphylococcus (GC 4548) (Staphylococcus sp.; [15]) | MIC Coagulase Negative Staphylococcus (GC 6257) (Staphylococcus sp.; [15]) | MIC Staphylococcus haemolyticus (GC 4546) (Staphylococcus sp.) | MIC Coagulase Negative Staphylococcus (GC 4547) (Staphylococcus sp.) | MIC Coagulase Negative Staphylococcus (GC 4548) (Staphylococcus sp.) | MIC Coagulase Negative Staphylococcus (GC 6257) (Staphylococcus sp.)
